Data on 44 compounds can be found in patent US20050075375A1 (priority 2003, published 2005).

SMILES strings stand for the structures.

In the assay the test system is monocistronic NK5.1 HCV replicon in Huh7 cells. The experiment in a line: HCV replicon assay, monocistronic replicon cell line. As to conditions: Hepatitis C virus, Huh-7; monocistronic NK5.1 HCV replicon in Huh7 cells; median value; read-out: Mono EC50 Median. It is filed as cell-based, hepatitis C virus. The procedure, abridged:
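EC50 derives from the HCV RNA/GAPDH RNA ratio by one-step TaqMan RT-PCR, relative to DMSO-only wells. Compounds (six half-log concentrations, 0.6% DMSO) were incubated 3 days at 37 °C with NK5.1 monocistronic replicon Huh7 cells plated a day earlier.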
(In general: A replicon is a self-replicating genome or part of one, used to study replication in cells.)

In general, EC50 refers to the concentration needed to bring the measured effect to its halfway point. In the case of `Cc1cccc(-c2n[nH]c(-c3c(O)ccc4ccccc34)n2)n1` [Compound 409, 1-(5-(6-methyl-pyridin-2-yl)-2H-[1,2,4]triazol-3-yl)-naphthalen-2-ol], the concentration for a half-maximal effect (EC50) was over 19 µM.

Turning to `FC(F)(F)c1ccncc1-c1n[nH]c(-c2cccc3ccccc23)n1` [Compound 410, 3-(5-Naphthalen-1-yl-1H-[1,2,4]triazol-3-yl)-4-trifluoromethyl-pyridine], the 50% effective concentration (EC50) was 2.9 µM.

Consider `CC(C)(C)c1ccc(O)c(-c2nc(-c3cnccc3C(F)(F)F)n[nH]2)c1` [Compound 411, 4-tert-Butyl-2-[5-(4-trifluoromethyl-pyridin-3-yl)-2H-[1,2,4]triazol-3-yl]-phenol], for which the EC50 came out at 10 µM.

Turning to `O=[N+]([O-])c1ccc(O)c(-c2nc(-c3cnccc3C(F)(F)F)n[nH]2)c1` [Compound 412, 4-Nitro-2-[5-(4-trifluoromethyl-pyridin-3-yl)-2H-[1,2,4]triazol-3-yl]-phenol], the EC50 was over 19 µM.

In the case of `Oc1ccc(F)cc1-c1nc(-c2cnccc2C(F)(F)F)n[nH]1` [Compound 413, 4-Fluoro-2-[5-(4-trifluoromethyl-pyridin-3-yl)-2H-[1,2,4]triazol-3-yl]-phenol], the half-maximal effective concentration (EC50) is over 19 µM.

In the case of `COc1ccc(O)c(-c2nc(-c3cnccc3C(F)(F)F)n[nH]2)c1` [Compound 414, 4-Methoxy-2-[5-(4-trifluoromethyl-pyridin-3-yl)-2H-[1,2,4]triazol-3-yl]-phenol], the EC50 is over 19 µM.

Regarding `Oc1ccc(Cl)cc1-c1nc(-c2cnccc2C(F)(F)F)n[nH]1` [Compound 415, 4-Chloro-2-[5-(4-trifluoromethyl-pyridin-3-yl)-2H-[1,2,4]triazol-3-yl]-phenol], the 50% effective concentration (EC50) was determined as 14 µM.

For the compound `CCOc1cccc(-c2nc(-c3cnccc3C(F)(F)F)n[nH]2)c1O` [Compound 416, 6-Ethoxy-2-[5-(4-trifluoromethyl-pyridin-3-yl)-2H-[1,2,4]triazol-3-yl]-phenol], the EC50 was over 19 µM.

With `Oc1cc(OCc2ccccc2)ccc1-c1nc(-c2cnccc2C(F)(F)F)n[nH]1` [Compound 417, 5-Benzyloxy-2-[5-(4-trifluoromethyl-pyridin-3-yl)-2H-[1,2,4]triazol-3-yl]-phenol], the EC50 was over 19 µM.

In the case of `Fc1cc(-c2nc(-c3cnccc3C(F)(F)F)n[nH]2)ccc1-c1ccccc1` [Compound 418, 3-[5-(2-Fluoro-biphenyl-4-yl)-1H-[1,2,4]triazol-3-yl]-4-trifluoromethyl-pyridine], the EC50 amounted to 17 µM.

With `Oc1ccc(Br)cc1-c1nc(-c2cnccc2C(F)(F)F)n[nH]1` [Compound 419, 4-Bromo-2-[5-(4-trifluoromethyl-pyridin-3-yl)-2H-[1,2,4]triazol-3-yl]-phenol], the concentration for a half-maximal effect (EC50) amounted to 12 µM.

Regarding `Cc1ccc(O)c(-c2nc(-c3cnccc3C(F)(F)F)n[nH]2)c1` [Compound 420, 4-Methyl-2-[5-(4-trifluoromethyl-pyridin-3-yl)-2H-[1,2,4]triazol-3-yl]-phenol], the EC50 amounted to 9.7 µM.

In the case of `COc1ccc(-c2nc(-c3cnccc3C(F)(F)F)n[nH]2)c(O)c1` [Compound 421, 5-Methoxy-2-[5-(4-trifluoromethyl-pyridin-3-yl)-2H-[1,2,4]triazol-3-yl]-phenol], the EC50 is over 19 µM.

`Oc1ccccc1-c1nc(-c2cnccc2C(F)(F)F)n[nH]1` [Compound 422, 2-[5-(4-trifluoromethyl-pyridin-3-yl)-2H-[1,2,4]triazol-3-yl]-phenol]: the half-maximal effective concentration (EC50) was over 19 µM.

For the compound `COc1cccc(-c2nc(-c3cnccc3C(F)(F)F)n[nH]2)c1O` [Compound 423, 6-Methoxy-2-[5-(4-trifluoromethyl-pyridin-3-yl)-2H-[1,2,4]triazol-3-yl]-phenol], the EC50 is over 19 µM.

On to `CCN(CC)c1ccc(-c2nc(-c3cnccc3C(F)(F)F)n[nH]2)c(O)c1` [Compound 424, 5-Diethylamino-2-[5-(4-trifluoromethyl-pyridin-3-yl)-2H-[1,2,4]triazol-3-yl]-phenol], for which the 50% effective concentration (EC50) is over 3.2 µM.

Consider `CC1(C)CCN2CCC(C)(C)c3c(O)c(-c4nc(-c5cnccc5C(F)(F)F)n[nH]4)cc1c32` [Compound 425, 1,1,7,7-Tetramethyl-9-[5-(4-trifluoromethyl-pyridin-3-yl)-2H-[1,2,4]triazol-3-yl]-2,3,6,7-tetrahydro-1H,5H-pyrido[3,2,1-ij]quinolin-8-ol], for which the EC50 was found to be 2.9 µM.

With `Oc1ccc(O)c(-c2nc(-c3cnccc3C(F)(F)F)n[nH]2)c1` [Compound 426, 4-Hydroxy-2-[5-(4-trifluoromethyl-pyridin-3-yl)-2H-[1,2,4]triazol-3-yl]-phenol], the concentration for a half-maximal effect (EC50) amounted to 12 µM.

For `COc1cccc(-c2nc(-c3cnccc3C(F)(F)F)n[nH]2)c1` [Compound 427, 3-[5-(3-Methoxy-phenyl)-1H-[1,2,4]triazol-3-yl]-4-trifluoromethyl-pyridine], the EC50 was over 19 µM.

On to `CC(C)c1ccc(-c2nc(-c3cnccc3C(F)(F)F)n[nH]2)cc1` [Compound 428, 3-[5-(4-Isopropyl-phenyl)-1H-[1,2,4]triazol-3-yl]-4-trifluoromethyl-pyridine], for which the 50% effective concentration (EC50) is over 19 µM.

Consider `Oc1ccc2ccccc2c1-c1nc(-c2cnccc2C(F)(F)F)n[nH]1` [Compound 429, 1-[5-(4-trifluoromethyl-pyridin-3-yl)-2H-[1,2,4]triazol-3-yl]-naphthalen-2-ol], for which the EC50 was over 19 µM.

For `FC(F)(F)c1ccncc1-c1n[nH]c(-c2ccc(Br)cc2)n1` [Compound 430, 3-[5-(4-Bromo-phenyl)-1H-[1,2,4]triazol-3-yl]-4-trifluoromethyl-pyridine], the concentration for a half-maximal effect (EC50) is over 19 µM.

On to `Brc1ccccc1-c1nc(-c2ccccn2)n[nH]1` [Compound 431, 2-[5-(2-Bromo-phenyl)-1H-[1,2,4]triazol-3-yl]-pyridine], for which the EC50 was over 19 µM.

On to `Brc1cccc(-c2nc(-c3ccccn3)n[nH]2)c1` [Compound 432, 2-[5-(3-Bromo-phenyl)-1H-[1,2,4]triazol-3-yl]-pyridine], for which the EC50 was 19 µM.

Regarding `Brc1ccc(-c2nc(-c3ccccn3)n[nH]2)cc1` [Compound 433, 2-[5-(4-Bromo-phenyl)-1H-[1,2,4]triazol-3-yl]-pyridine], the EC50 is over 19 µM.

Turning to `Fc1ccccc1-c1nc(-c2ccccn2)n[nH]1` [Compound 434, 2-[5-(2-Fluoro-phenyl)-1H-[1,2,4]triazol-3-yl]-pyridine], the EC50 was over 19 µM.

Consider `Clc1cccc(Cl)c1-c1nc(-c2ccccn2)n[nH]1` [Compound 435, 2-[5-(2,6-Dichloro-phenyl)-1H-[1,2,4]triazol-3-yl]-pyridine], for which the 50% effective concentration (EC50) was over 19 µM.

Take `Fc1cccc(Cl)c1-c1nc(-c2ccccn2)n[nH]1` [Compound 436, 2-[5-(2-Fluoro-6-chloro-phenyl)-1H-[1,2,4]triazol-3-yl]-pyridine]: the half-maximal effective concentration (EC50) was found to be 16 µM.

For `Brc1ccccc1-c1nc(-c2nccc3ccccc23)n[nH]1` [Compound 437], the EC50 turned out to be 2.7 µM.

Regarding `Brc1cccc(-c2nc(-c3nccc4ccccc34)n[nH]2)c1` [Compound 438], the EC50 was over 19 µM.

Regarding `Brc1ccc(-c2nc(-c3nccc4ccccc34)n[nH]2)cc1` [Compound 439], the concentration giving a half-maximal response (EC50) was over 19 µM.

Consider `Cc1cccnc1-c1n[nH]c(-c2cccc3ccccc23)n1` [Compound 440, 3-Methyl-2-(5-naphthalen-1-yl-1H-[1,2,4]triazol-3-yl)-pyridine], for which the EC50 worked out at 5.6 µM.

Consider `Cc1cccnc1-c1n[nH]c(-c2cc(C(C)(C)C)ccc2O)n1` [Compound 441, 4-tert-Butyl-2-[5-(3-methyl-pyridin-2-yl)-2H-[1,2,4]triazol-3-yl]-phenol], for which the concentration for a half-maximal effect (EC50) was over 10 µM.

Turning to `Cc1cccnc1-c1n[nH]c(-c2cc([N+](=O)[O-])ccc2O)n1` [Compound 442, 4-Nitro-2-(5-(3-methyl-pyridin-2-yl)-2H-[1,2,4]triazol-3-yl)-phenol], the EC50 turned out to be 7.9 µM.

`Cc1cccnc1-c1n[nH]c(-c2cc(F)ccc2O)n1` [Compound 443, 4-Fluoro-2-(5-(3-methyl-pyridin-2-yl)-2H-[1,2,4]triazol-3-yl)-phenol]: the concentration for a half-maximal effect (EC50) is over 10 µM.

Consider `COc1ccc(O)c(-c2nc(-c3ncccc3C)n[nH]2)c1` [Compound 444, 4-Methoxy-2-(5-(3-methyl-pyridin-2-yl)-2H-[1,2,4]triazol-3-yl)-phenol], for which the EC50 came to 7.7 µM.

In the case of `Cc1cccnc1-c1n[nH]c(-c2cc(Cl)ccc2O)n1` [Compound 445, 4-Chloro-2-(5-(3-methyl-pyridin-2-yl)-2H-[1,2,4]triazol-3-yl)-phenol], the EC50 amounted to 2.9 µM.

For `CCOc1cccc(-c2nc(-c3ncccc3C)n[nH]2)c1O` [Compound 446, 6-Ethoxy-2-(5-(3-methyl-pyridin-2-yl)-2H-[1,2,4]triazol-3-yl)-phenol], the EC50 was determined as 7.8 µM.

`Cc1cccnc1-c1n[nH]c(-c2ccc(OCc3ccccc3)cc2O)n1` [Compound 447, 5-Benzyloxy-2-(5-(3-methyl-pyridin-2-yl)-2H-[1,2,4]triazol-3-yl)-phenol]: the EC50 was over 10 µM.

As to `Cc1cccnc1-c1n[nH]c(-c2ccc(-c3ccccc3)c(F)c2)n1` [Compound 448, 2-[5-(2-Fluoro-biphenyl-4-yl)-1H-[1,2,4]triazol-3-yl]-3-methyl-pyridine], the EC50 stood at 28 µM.

For the compound `Cc1cccnc1-c1n[nH]c(-c2cc(Br)ccc2O)n1` [Compound 449, 4-Bromo-2-(5-(3-methyl-pyridin-2-yl)-2H-[1,2,4]triazol-3-yl)-phenol], the half-maximal effective concentration (EC50) was 2.3 µM.

For `Cc1ccc(O)c(-c2nc(-c3ncccc3C)n[nH]2)c1` [Compound 450, 4-Methyl-2-(5-(3-methyl-pyridin-2-yl)-2H-[1,2,4]triazol-3-yl)-phenol], the EC50 was 4.2 µM.

`COc1ccc(-c2nc(-c3ncccc3C)n[nH]2)c(O)c1` [Compound 451, 5-Methoxy-2-(5-(3-methyl-pyridin-2-yl)-2H-[1,2,4]triazol-3-yl)-phenol]: the EC50 was 23 µM.

Regarding `Cc1cccnc1-c1n[nH]c(-c2ccccc2O)n1` [Compound 452, 2-(5-(3-methyl-pyridin-2-yl)-2H-[1,2,4]triazol-3-yl)-phenol], the EC50 came to 31 µM.
